Assay results reported in patent publication US20230089914A1 (Clearside Biomedical, Inc., priority 2020, published 2023).
In brackets after ≈: the same amount, converted by molar mass.

Legend:
[1] = in vivo; conditions: male, Dutch Belted, rabbit, topical or ocular, 4 mg
Source text: The animals' eyes were examined by a board certified veterinary ophthalmologist using a slitlamp biomicroscope and an indirect ophthalmoscope. The exams occurred predose and on the indicated study days prior to sacrifice, as applicable. On specified days, at least two animals/time point were euthanized for the collection of blood (for plasma) and ocular tissues (aqueous humor, vitreous humor, retina, and sclera/choroid-RPE).
For the initial study, the animals were acclimated to study conditions for 16 days prior to dose administration. At dosing, the animals weighed 1721 to 1941 g and were 5 months of age. All animals were housed in individual, suspended, stainless steel cages during acclimation and the test period. Certified Hi-Fiber Rabbit Diet #5325 (PMI) was provided. Water was provided fresh daily, ad libitum. Environmental controls for the animal room were set to maintain a temperature of 16 to 22° C. (Deviation), a relative humidity of 50±20% (Deviation), and a 12-hour light/12-hour dark cycle. […]
The dosing formulation was drawn up into a 1-mL luer-lock syringe using a standard 21-gauge, 1-inch needle; any bubbles were expressed, and the standard needle was replaced by a 30-gauge microneedle 700 μm in length. […] Any dosing observations were recorded. […]

[2] = Ocular distribution and pharmacokinetics after suprachoroidal injection of CLS-AX, 0.03 or 0.1 mg/eye (second study); assay type: in vivo, male pigmented Dutch Belted rabbits; conditions: for tmax: Retina; for half-life: sclera/choroid-RPE (SCR), SCR; for Cmax: topical or ocular, study day 2
[3] = Solubility of the API (product profile); assay type: physicochemical

CNC(=O)c1ccccc1Sc1ccc2c(/C=C/c3ccccn3)n[nH]c2c1 [Axitinib]
half-life [1]: 102 days | Cmax ([1]; Cmax): 857 ng/mL | eyes having quantifiable levels in retina ([2]; 0.03 mg/eye, days 31 and 61): 1 of 4 | eyes having quantifiable levels in retina ([2]; 0.1 mg/eye, Days 45 through 66): 1 of 4 | tmax ([2]; 0.03 mg/eye): 1 days | tmax ([2]; 0.1 mg/eye): 1 days | concentration at 15 day ([2]; male, Dutch Belted, rabbit, other: suprachoroidal injection, retina, 0.03 mg/eye, by day 15, essentially below, read-out: mean retina concentrations (limit of quantitation)): < 16.7 ng/g | half-life ([2]; male, Dutch Belted, rabbit, other: suprachoroidal injection, 0.03 mg/eye): 10.7 days | half-life ([2]; male, Dutch Belted, rabbit, other: suprachoroidal injection, 0.1 mg/eye): 15.8 days | Cmax ([2]; male, Dutch Belted, rabbit, retina, 0.03 mg/eye): 4480 ng/g | Cmax ([2]; male, Dutch Belted, rabbit, retina, 0.1 mg/eye): 6260 ng/g | mean AUC0-t, higher dose versus lower dose ([2]; retina, 0.1 vs 0.03 mg/eye): 1.6 fold | mean Cmax, higher dose versus lower dose ([2]; retina, 0.1 vs 0.03 mg/eye): 1.4 fold | Solubility (solvent) [3]: DMSO | solubility ([3]; in water): 0.2 µg/mL (≈ 0.517 µM)
